Results as given in patent publication US5824646A, “Intravaginal delivery of biologically active polypeptides” (Teikoku Seiyaku Co., Ltd., priority 1997, dated 1998).
Where no end group is shown, it is not given here.

How the values were obtained:
oophorectomized rats [1] = assay: Serum glucose after intravaginal insulin preparation; assay type: in vivo, rat; details: 5 U. insulin, 1 w/v% SDS
Description: The oophorectomized rats described in Example 1 were used in this experiment. The insulin pharmaceutical preparation prepared according to this invention was administered intravaginally to the rats, and the change in plasma glucose was investigated. Bovine serum albumin and SDS were added to a solution of 100 U./ml insulin in 0.1M acetic acid/sodium acetate buffer solution to make a final concentration of 3 mg/ml and 1 w/v%, respectively. The pH was adjusted to 5.0 with 0.1M acetic acid/sodium acetate buffer solution. The 5 U. insulin preparation was administered into the vagina of the rat with a small cotton ball. Serum glucose at 2 hours after drug administration was compared with that before drug administration. It was noted that at 2 hours after drug administration, the blood sugar level decreased about 30% in comparison with that prior to drug administration.

[2] = tested on: aged, oophorectomized rats; assay: Serum calcium decrease by porcine calcitonin in aged oophorectomized rats; assay type: in vivo, rat; details: intramuscular injection (femoral bicipital muscle), different concentrations
Description: The ovaries of 30-week-old female Wister rats were excised about one month before use in the experiment.
Prior to this experiment, a separate experiment was performed to investigate the susceptibility of aged, oophorectomized rats to porcine calcitonin. Different concentrations of calcitonin were injected into rats in the femoral bicipital muscle, and the decreasing serum calcium was determined.
Following the procedure of Examples 1 and 2, a dose of 4 I.U. calcitonin per rat was prepared and administered intravaginally by inserting a small cotton ball in the vagina. Following the procedure of Examples 1 and 2, blood was extracted and the blood calcium concentration was determined.

[3] = tested on: oophorectomized female Wister rats; assay: Serum calcium decrease after intravaginal porcine calcitonin in young oophorectomized rats; assay type: in vivo, rat
Description: Oophorectomy was performed on 5- to 6-week old female Wister rats which, after about one month, were used in this experiment as an animal model for postmenopausal women.
To 20 I.U. porcine calcitonin, 3 mg of bovine serum albumin (BSA) was added. Sodium lauryl sulfate (hereinafter called "SDS") was then added to the above-prepared mixture to make 0.05, 0.1, 0.5 and 1 w/v% concentrations, respectively. The mixtures of different SDS concentrations were then each diluted with 0.1M acetic acid/sodium acetate buffer solution (pH 5.0) to make 1 ml calcitonin solutions. Rats were anesthetized with ether, and a required amount of blood was taken from the right external jugular vein before the administration of calcitonin. After a small cotton ball was inserted into the vagina of the rat, each 50 microliters of calcitonin solution of different SDS concentrations was administered. Blood was again extracted 2 hours after calcitonin administration.
After the separation of blood serum, serum calcium concentration was determined with a Calcium C test kit, a registered trademark at Wako Chemical in Japan. The results are depicted in FIG. 1.
Oophorectomized menopausal model rats were used in this experiment, similarly to Example 1.
Bovine serum albumin was added to each 1 ml of 2, 10, 20, 40 and 80 I.U./ml of porcine calcitonin dissolved in acetic acid buffer solution (pH 5.0) to make 3 mg/ml. Then, SDS was added to each solution to make 1 w/v%. Similarly to Example 1, these preparations containing different concentrations of calcitonin were administered intravaginally to the rats, and the serum calcium concentration was determined. […] The largest ratio of decreased serum calcium against control noted in this experiment was 30%.

[4] = tested on: 5-week-old male Wister rats; assay: Effect of pH and human serum albumin on calcitonin stability: bioassay by intramuscular injection; assay type: in vivo, rat; details: 0.03 I.U./ml, 4° C. for one week, bioassay 0.06 I.U./kg i.m.
Description: Using blood calcium decreasing ratio as an indication, the effect of pH and human serum albumin (HSA) on the stability of calcitonin in the preparation of this invention was investigated using 5-week-old male Wister rats.
Purified porcine calcitonin (P--CT) was dissolved in 0.1M acetic acid buffer solutions of pH 3.0 and pH 5.0 and 0.1M phosphoric acid buffer solution of pH 6.8 so that each of the solutions contained 0.03 I.U./ml of porcine calcitonin. Each calcitonin solution (pH 3.0, 5.0, 6.8) was divided into two parts. In each case, to one portion of the calcitonin solutions 3 mg/ml of HSA was added, while no treatment was performed on the other portion. The resultant preparations were stored at 4° C. for one week. These calcitonin preparations were then each injected into the femoral bicipital muscle of the rats at a dosage of 0.06 I.U. per kg body weight. An appropriate quantity of blood was extracted from the right external jugular vein, and blood […] was determined with a Calcium C-Test kit.

[5] = tested on: 5-week-old Wister male rats; assay: Effect of SDS on calcitonin stability: bioassay of stored preparations by intramuscular injection; assay type: in vivo, rat
Description: A porcine calcitonin (P--CT) pharmaceutical preparation according to the invention was prepared by the method described in Examples 1 and 2, and the stability of porcine calcitonin in the resultant preparation was investigated. Thus, 1 ml of 3 mg/ml bovine serum albumin (BSA) solution was added to 40 I.U. of porcine calcitonin, and the mixture was divided into two equal portions. SDS was added to one of the portions to make a final concentration of 0.1 w/v%; and no SDS was added to the other portion. The pH of both of the preparations was then adjusted to pH 5 with acetic acid/sodium acetate buffer (0.1M) solution. These two preparations were then stored at 37° C. for 8 days. The biological activity of calcitonin of the 8-day stored preparations was then investigated using 5-week-old Wister male rats. A dosage of 0.12 I.U./kg calcitonin of these two preparations was administered to the rats by injection into the femoral muscle. One hour after drug administration, blood was extracted from the right external jugular vein, and the blood calcium content was determined.

oophorectomized rats [6] = assay: Serum calcitonin (RIA) and serum calcium after intravaginal human calcitonin with SDS; assay type: in vivo, rat; details: 10-200 micrograms HCT per kg, 0.3% BSA, 1 w/v% SDS, pH 5, 2 hours
Description: Similarly to Examples 1 and 2, oophorectomized rats were used in this experiment. 1000 micrograms of Human calcitonin (HCT) was dissolved in 1 ml of 0.1M acetate buffer (pH 5) containing 0.3 w/v% bovine serum albumin and 1 w/v% SDS. 10, 25, 50, 100 and 200 micrograms of HCT (protein weight) in solution per 1 kg body weight of rats were taken out of the HCT solution mentioned above, and each portion of the HCT solution was diluted up to 50 microliters with 0.1M acetate buffer (pH 5) containing 0.3% (w/v%) bovine serum albumin and 1 w/v% SDS. Each 50 microliters of HCT solution with a different amount of HCT was administered into the vagina with a small cotton ball. Two hours after drug administration, blood was extracted from the right external jugular vein of the anesthetized rat, and serum calcium was determined with a Calcium C test kit. Serum calcitonin was also determined by a radioimmunoassay method (RIA method), using human calcitonin antibody.

oophorectomized rats [7] = assay: Serum H-CT (RIA) and serum calcium after intravaginal H-CT with sodium caprate and Nonidet P-40; assay type: in vivo, rat; details: 250 micrograms H-CT, 0.3% BSA, 1% sodium caprate, 2% Nonidet P-40, pH 5, 1, 2 and 4 hours
Description: Oophorectomized rats were used in this experiment in a similar manner as Example 3. 1 mg of H--CT was dissolved in 400 microliters of 0.1M acetate buffer (pH 5) containing 0.3 w/v% bovine serum albumin (BSA) and 1% sodium caprate and 2% Nonidet P-40. 100 microliters of H--CT solution (250 micrograms H--CT) was administered into the vagina of the rat with a small cotton ball. Blood samples were taken from the right external jugular vein of the anesthetized rats at 1, 2 and 4 hours after administration. Serum calcium was determined with a Calcium C test kit. Serum H--CT was also determined by the RIA method using human calcitonin antibody.

intravaginal protease = assay: Protease activity of vaginal wash with BAEE as substrate after intravaginal preparation; assay type: biochemical, rat
Description: The calcitonin pharmaceutical preparation was prepared according to Examples 1 and 2. The preparation was inserted into the vagina with a small cotton ball. Two hours after the insertion, the inserted cotton ball was removed from the vagina. The vagina was then washed with a fixed quantity of phosphate buffered saline solution, the washed solution was combined with the cotton ball, and the protease activity was determined with BAEE as substrate.

oophorectomized rats [8] = assay: Serum calcium and serum calcitonin after intravaginal S-CT suppository; assay type: in vivo, rat; details: PEG suppository, 250 micrograms S-CT, BSA, Nonidet P-40, sodium caprate, 1, 2 and 4 hrs
Description: The model animals and experimental procedures are similar to that described in Example 10. The suppositories used in this Example were prepared as follows. 1 mg of S--CT was dissolved in 100 microliters of 0.1M acetate buffer solution (pH 5) containing 1.5 mg of BSA (bovine serum albumin), 10 mg of Nonidet P-40, and 5 mg of sodium caprate. 383 mg of suppository base composed of PEG 4000 (33%), PEG 6000 (47%) and distilled water (20%) was warmed to 45° to 50° C., then mixed well with the S--CT solution using a Vortex mixer for 1 min, then transferred into a brass suppository mold and cooled to approximately 4° C. for 2 hrs. 125 mg of S--CT suppository contained 250 micrograms of S--CT. 250 micrograms of a S--CT suppository was administered into the rat vagina. 1, 2, and 4 hrs after administration, blood samples were taken, and the serum calcium concentration and the serum calcitonin were determined by the same method used in Example 10.

[9] = 3 mg/ml BSA, pH 5.0, after 2 hours

insulin
Glucose Concentration in Serum (oophorectomized rats [1]; [9]): 53 ± 24.6 mg/dL
Glucose Concentration in Serum relative to prior to administration (100) (oophorectomized rats [1]; [9]): 70.7%
decrease of blood sugar level in comparison with that prior to drug administration (oophorectomized rats [1]; BSA, 2 hours): about 30%

porcine calcitonin (CSNLSTCVLSAYWRNLNNFHRFSGMGFGPETP; ends and bridges not checked; cysteine pairing not given here; UniProt P01259 1-32, looked up) [P-CT]
largest ratio of decreased serum calcium against control [2]: about 10%
ratio of decreased serum calcium against control (dose response) ([3]; 2, 10, 20, 40 and 80 I.U./ml porcine calcitonin, 3 mg/ml BSA, 1 w/v% SDS, pH 5.0, intravaginal): exhibited an increase proportional to the increase of calcitonin concentration
largest ratio of decreased serum calcium against control ([3]; 2-80 I.U./ml porcine calcitonin, 3 mg/ml BSA, 1 w/v% SDS, intravaginal, young oophorectomized rats): 30%
stability of calcitonin in pH 6.8 solution with HSA ([4]; 3 mg/ml HSA added): became as stable as calcitonin in a solution of pH 3.0 or 5.0
stability of calcitonin in buffer solutions without HSA, pH 3.0 and 5.0 ([4]; 0.1M acetic acid buffer): stable
stability of calcitonin in buffer solution without HSA, pH 6.8 ([4]; 0.1M phosphoric acid buffer): unstable
Ratio of Decreased Calcium Concentration Against Control, 0 day ([5]; P-CT (40 I.U.)/0.3% BSA/ml, pH 5.0, freshly made, 0.12 I.U./kg i.m., 1 hour): 20.7
Ratio of Decreased Calcium Concentration Against Control, 8 days (at 37° C.) ([5]; P-CT (40 I.U.)/0.3% BSA/ml, pH 5.0, stored 8 days at 37° C., 0.12 I.U./kg i.m., 1 hour): 11.1
biological activity after the 8-day storage period ([5]; stored at 37° C. for 8 days, pH 5, compared with freshly made preparation): decreased to about half that of the freshly made preparation

Human calcitonin [HCT]
serum calcitonin (RIA) (oophorectomized rats [6]): increased proportionally to the increase in the dosage of calcitonin administered into the vagina
serum calcium (oophorectomized rats [6]): decreased correspondingly with increase in calcitonin dosage
serum calcitonin (RIA) (oophorectomized rats [7]): increased proportionally to the increase in the dosage of calcitonin administered into the vagina
serum calcium (oophorectomized rats [7]): decreased correspondingly with an increase in calcitonin dosage

CCCCCCCCCCCCOS(=O)(=O)[O-].[Na+] [SDS, Sodium lauryl sulfate]
decrease of protease activity in comparison with the control group (intravaginal protease; 1% SDS added group versus control without SDS): about 30%
protease activity relative to control (control = 100.0) (intravaginal protease; 1% SDS in calcitonin preparation, vaginal wash 2 hours after insertion): 29.2
protease activity (intravaginal protease; 1% SDS in calcitonin preparation, vaginal wash plus cotton ball 2 hours after insertion): 6.84 BAEE units/mg protein
ratio of decreased serum calcium concentration against the control ([3]; porcine calcitonin 20 I.U./ml, 3 mg BSA, SDS 0.05, 0.1, 0.5 and 1 w/v%, pH 5.0, 50 microliters intravaginal, 2 hours, control without SDS): increased correspondingly with increasing concentration of SDS

salmon calcitonin [S--CT]
absorption of S-CT and its biological activity (oophorectomized rats [8]): exhibit a dose-dependent response
